{
  "source": "paper PMC6657668",
  "about": "“Porcine Beta-Defensin 2 Provides Protection Against Bacterial Infection by a Direct Bactericidal Activity and Alleviates Inflammation via Interference With the TLR4/NF-κB Pathway” (Frontiers in Immunology, 2019)",
  "key": {"ERK": {"tested_on": "ERK", "experiment": "Western blot of ERK and p-ERK in RAW 264.7 cells", "type": "cell-based, mouse", "settings": "LPS 30 min with various concentrations of PBD-2 (Figure S4)", "procedure": "[…] […] Proteins were firstly analyzed with SDS-PAGE and then electro-transferred onto a PVDF (#ISEQ00010, Biosharp®, Beijing, China) membrane. The PVDF membrane was blocked with 1/100 bovine serum albumin (BSA, #V900933-100G, VETEC, Sigma-Aldrich®, St. Louis, MO, USA) at 10 μg/ml at 37°C for 2 h, washed with PBST five times, incubated with the antisera against p-p65 (# 3033), p65 (# 4764), p-ERK (# 4370), ERK (# 4695), p-p38 (# 4511), p38 (# 8690), p-JNK (# 4668), JNK (# 9258) (Cell Signaling Technology®, Danvers, MA, USA), and β-actin (# AA128, Beyotime®, Shanghai, China) at 2 μg/ml at 37°C for 2 h and washed five times again. The PVDF membrane was subsequently incubated with 1 μg/ml secondary antibody, namely, goat anti-rabbit IgG (# 7074S, Cell Signaling Technology®, Danvers, MA, USA), at 37°C for 2 h and washed five times. Lastly, immune-reactive bands were detected using an ECF Western blot system (Tanon 5200 Multi, Shanghai, China) and quantified using AlphaImager 2200 analysis software.\nSupplementary file Image_4.TIF: Figure S4 Effects of PBD-2 on ERK, p38, and JNK signaling pathways. Cells were treated with LPS for 30 min with or without various concentrations of PBD-2. The expression levels of ERK, p-ERK, p38, p-p38, JNK, p-JNK, and β-actin were examined by Western blot (A). The signal intensity of each band was quantified (B–D). Click here for additional data file."}, "S. Typhimurium [1]": {"tested_on": "S. Typhimurium", "experiment": "Serum cytokine levels of mice infected with S. Typhimurium (ELISA)", "type": "in vivo, Salmonella Typhimurium 14028 (in mice)", "settings": "24 h, n = 6", "procedure": "At 24 h post-infection, blood samples of the mice were collected to detect cytokines IL-6 (# EMC004.96), tumor necrosis factor-α (TNF-α, # EMC102a.96), IL-1β (# EMC001b.96), and IL-12 (# EMC006.96) using ELISA kits (Neo-bioscience Technology Company, Shenzhen China). For cytokine detections in the WT mice with or without treatment of PBD-2, the blood samples were collected from the WT mice orally administered with solely 2.5 × 10^8 CFU of S. Typhimurium (n = 6) or together with PBD-2 at 5 mg/kg body weight (n = 6)."}, "[2]": {"type": "binding, Escherichia coli O55:B5", "settings": "ITC, 25°C; PBD-2 0.75 mM in syringe, LPS in cell (0.010 to 0.050 mM; Figure S6: 0.050 mM)"}, "S. Typhimurium [3]": {"tested_on": "S. Typhimurium", "experiment": "Bacterial load in caecum of mice infected with S. Typhimurium", "settings": "PBD-2 expressed in TG mice; oral 2.5 × 10^8 CFU; 24 h post-infection; n = 6; vs WT", "experimental": "Four infection experiments were conducted to determine the resistance to S. Typhimurium of the TG mice. For body weight measurements, 7 WT and 7 TG mice were orally administered with 2.5 × 10^8 CFU of S. Typhimurium, and the body weight of each mouse was measured on days 1, 2, 3, 4, and 5 after infection. For the detection of the tissue weight ratios, bacterial loads in tissues and tissue lesions after S. Typhimurium infection, 9 WT and 8 TG mice were orally administered with 2.5 × 10^8 CFU of S. Typhimurium. The spleen, caecum and body weights of the mice were weighed at 24 h post-infection. The bacterial loads in the tissues were also measured ([26]). The spleen and caecum were weighed and homogenized in cold PBS at a ratio of 4 ml per gram of tissue and coated plates. The bacterial numbers in the homogenates were counted by serially diluting the homogenates and spreading on plates. Caeca were harvested for histopathological analysis by using the methods described above. The intestinal damage, including epithelial damage, submucosal oedema, and neutrophil aggregation, was observed."}, "[4]": {"set-up": "method as in 2 sources, one per row (each row's own in cited_ref): ref [13] = [13]; PMID 27383796; doi:10.5713/ajas.16.0207; 13. Xu J Zhong F Zhang Y Zhang J Huo S Lin H . Construction of Bacillus subtilis strain engineered for expression of porcine beta-defensin-2/cecropin P1 fusion antimicrobial peptides and its growth-pr ||| ref [15] = [15]; PMID 26707031; doi:10.1111/asj.12540; 15. Tang Z Xu L Shi B Deng H Lai X Liu J . Oral administration of synthetic porcine beta-defensin-2 improves growth performance and cecal microbial flora and down-regulates the expression of intestina", "settings": "cited from earlier work"}, "NF-κB p65": {"tested_on": "NF-κB p65", "experiment": "Western blot of p65 and p-p65 in RAW 264.7 cells", "type": "cell-based, mouse", "procedure": "RAW 264.7 cells were treated with LPS (1 μg/ml) alone or together with PBD-2 (10 μg/mL). After 6 h, the cells were lysed, and inflammatory proteins were detected through Western blot. Proteins were firstly analyzed with SDS-PAGE and then electro-transferred onto a PVDF (#ISEQ00010, Biosharp®, Beijing, China) membrane. The PVDF membrane was blocked with 1/100 bovine serum albumin (BSA, #V900933-100G, VETEC, Sigma-Aldrich®, St. Louis, MO, USA) at 10 μg/ml at 37°C for 2 h, washed with PBST five times, incubated with the antisera against p-p65 (# 3033), p65 (# 4764), p-ERK (# 4370), ERK (# 4695), p-p38 (# 4511), p38 (# 8690), p-JNK (# 4668), JNK (# 9258) (Cell Signaling Technology®, Danvers, MA, USA), and β-actin (# AA128, Beyotime®, Shanghai, China) at 2 μg/ml at 37°C for 2 h and washed five times again. The PVDF membrane was subsequently incubated with 1 μg/ml secondary antibody, namely, goat anti-rabbit IgG (# 7074S, Cell Signaling Technology®, Danvers, MA, USA), at 37°C for 2 h and washed five times. Lastly, immune-reactive bands were detected using an ECF Western blot system (Tanon 5200 Multi, Shanghai, China) and quantified using AlphaImager 2200 analysis software."}, "[5]": {"settings": "PBD-2 expressed in TG mice, oral 2.5 × 10^8 CFU S. Typhimurium, vs WT"}, "[6]": {"settings": "synthetic PBD-2 5 mg/kg orally with 2.5 × 10^8 CFU S. Typhimurium, WT mice, vs infection alone"}},
  "note": "Where a SMILES comes first, the peptide text is derived from it.",
  "data": [
    {"smiles": "CC[C@H](C)[C@H](NC(=O)[C@@H]1CSSC[C@@H]2NC(=O)[C@@H]3CCCN3C(=O)[C@H](CO)NC(=O)[C@H](Cc3ccccc3)NC(=O)[C@H](CC(N)=O)NC(=O)[C@@H]3CSSC[C@H](NC(=O)[C@H]([C@@H](C)O)NC(=O)CNC(=O)[C@H](CCC(=O)O)NC(=O)[C@H]([C@@H](C)CC)NC(=O)[C@H](CCCNC(=N)N)NC(=O)[C@H](CC(N)=O)NC(=O)[C@H](Cc4ccccc4)NC(=O)[C@H](CC(C)C)NC(=O)[C@@H]4CCCN4C2=O)C(=O)N[C@@H](Cc2ccc(O)cc2)C(=O)N[C@@H](CO)C(=O)NCC(=O)N[C@@H](CCCCN)C(=O)N[C@@H](C)C(=O)N[C@@H](CCCCN)C(=O)N[C@@H](CSSC[C@H](NC(=O)[C@@H](NC(=O)[C@H](Cc2ccc(O)cc2)NC(=O)[C@H](Cc2c[nH]cn2)NC(=O)[C@@H](N)CC(=O)O)[C@@H](C)CC)C(=O)N[C@@H](C)C(=O)N[C@@H](CCCCN)C(=O)N[C@@H](CCCCN)C(=O)NCC(=O)NCC(=O)N[C@@H]([C@@H](C)O)C(=O)N3)C(=O)N1)C(=O)N[C@@H](CCCNC(=N)N)C(=O)O", "note": "[PBD-2, Porcine beta-defensin 2] (HELM PEPTIDE1{D.H.Y.I.C.A.K.K.G.G.T.C.N.F.S.P.C.P.L.F.N.R.I.E.G.T.C.Y.S.G.K.A.K.C.C.I.R}$PEPTIDE1,PEPTIDE1,5:R3-34:R3|PEPTIDE1,PEPTIDE1,12:R3-27:R3|PEPTIDE1,PEPTIDE1,17:R3-35:R3$$$V2.0; N-terminus and C-terminus assumed)", "values": [
      {"measurement": "LPS-induced phosphorylation of ERK", "setting": "ERK", "value": "did not affect the LPS-induced phosphorylation of ERK, p38, and JNK"},
      {"measurement": "level of IL-1β in serum", "setting": "S. Typhimurium [1]; [5]", "value": "significantly lower than those of the WT mice (p < 0.05)"},
      {"measurement": "level of IL-6 in serum", "setting": "S. Typhimurium [1]; [5]", "value": "significantly lower than those of the WT mice (p < 0.05)"},
      {"measurement": "level of IL-12 in serum", "setting": "S. Typhimurium [1]; [5]", "value": "significantly lower than those of the WT mice (p < 0.05)"},
      {"measurement": "level of TNF-α in serum", "setting": "S. Typhimurium [1]; [5]", "value": "significantly lower than those of the WT mice (p < 0.05)"},
      {"measurement": "level of IL-1β in serum", "setting": "S. Typhimurium [1]; [6]", "value": "significantly lower levels of proinflammatory cytokines than the mice infected with S. Typhimurium alone did (p < 0.05)"},
      {"measurement": "level of IL-6 in serum", "setting": "S. Typhimurium [1]; [6]", "value": "significantly lower levels of proinflammatory cytokines than the mice infected with S. Typhimurium alone did (p < 0.05)"},
      {"measurement": "level of IL-12 in serum", "setting": "S. Typhimurium [1]; [6]", "value": "significantly lower levels of proinflammatory cytokines than the mice infected with S. Typhimurium alone did (p < 0.05)"},
      {"measurement": "level of TNF-α in serum", "setting": "S. Typhimurium [1]; [6]", "value": "significantly lower levels of proinflammatory cytokines than the mice infected with S. Typhimurium alone did (p < 0.05)"},
      {"measurement": "binding to LPS", "setting": "[2]", "value": "did not bind to LPS"},
      {"measurement": "bacterial load in the caecum", "setting": "S. Typhimurium [3]", "value": "smaller amount of bacterial load in the caecum compared with the WT mice (p < 0.05)"},
      {"measurement": "growth performance, caecum microbial flora, inflammatory cytokine expression", "setting": "[4]; oral administration, pigs, ref [15]", "value": "improve growth performance and caecum microbial flora and reduce the expression of inflammatory cytokines in pigs"},
      {"measurement": "growth and diarrhea in piglets", "setting": "[4]; ref [13]", "value": "promote growth, alleviate diarrhea in piglets"},
      {"measurement": "LPS-induced NF-κB p65 phosphorylation", "setting": "NF-κB p65; LPS 1 μg/ml, PBD-2 10 μg/mL (legend: various concentrations), 6 h", "value": "suppress the LPS-induced NF-κB p65 phosphorylation"},
      {"measurement": "activation of NF-κB by PBD-2 itself", "setting": "NF-κB p65; PBD-2 without LPS (Figure 5D)", "value": "did not activate NF-κB"}
    ]}
  ]
}
